Results published in patent US10105357B2, “Indication of antibiotic drugs for preparation of cancer inhibition pharmaceutical composition” (LAUNX BIOMEDICAL CO., LTD., priority 2014, dated 2018).
Where a name gives a salt, the structure may show the parent alone. Read-outs that look alike come from different tables or passages of the source.

What was measured:
[1] = test system: SAS (Tongue squamous cell carcinoma); experiment: Cell viability analysis, tongue cancer SAS; assay type: cell-based, human; settings: for viability at 10 µM: Homo sapiens, 72 h, read-out: The results of antibiotic drug inhibiting cancer cell lines (cell viability analysis), SAS
[2] = test system: PC3 (p53−) (Prostate Adenocarcinoma); experiment: Cell viability analysis, prostate cancer PC3; assay type: cell-based, human; settings: for viability at 10 µM: Homo sapiens, 72 h
[3] = test system: 786-O (Renal adenocarcinoma); experiment: Cell viability analysis, renal cancer 786-O; assay type: cell-based, human; settings: for viability at 10 µM: Homo sapiens, 786-0, 72 h, read-out: The results of antibiotic drug inhibiting cancer cell lines (cell viability analysis), 786-O
[4] = test system: TSGH-8301 (Urinary Bladder Carcinoma); experiment: Cell viability analysis, bladder cancer TSGH-8301; assay type: cell-based, human; settings: for viability at 10 µM: Homo sapiens, 72 h
TOV-21G = experiment: Cell viability analysis, ovarian cancer TOV-21G; assay type: cell-based, human; settings: for viability at 10 µM: Homo sapiens, TOV21G, 72 h, read-out: The results of antibiotic drug inhibiting cancer cell lines (cell viability analysis), TOV-21G
[5] = test system: HI650 (Lung Adenocarcinoma); experiment: Cell viability analysis, lung cancer HI650; assay type: cell-based, human; settings: for viability at 10 µM: Homo sapiens, NCI-H1650, 72 h
BxPC-3 = experiment: Cell viability analysis, pancreatic cancer BxPC-3; assay type: cell-based, human; settings: for viability at 10 µM: Homo sapiens, BXPC-3, 72 h, read-out: The results of antibiotic drug inhibiting cancer cell lines (cell viability analysis), BxPC-3
[6] = test system: A375 (Amelanotic Melanoma); experiment: Cell viability analysis, skin cancer A375; assay type: cell-based, human; settings: for viability at 10 µM: Homo sapiens, A-375, 72 h
[7] = test system: BCC (basal cell carcinoma); experiment: Cell viability analysis, skin cancer BCC; assay type: cell-based, human; settings: for viability at 10 µM: Homo sapiens, 72 h, read-out: The results of antibiotic drug inhibiting cancer cell lines (cell viability analysis), BCC
[8] = test system: HeLa (Cervix Adenocarcinoma); experiment: Cell viability analysis, cervical cancer HeLa; assay type: cell-based, human; settings: for viability at 10 µM: Homo sapiens, HeLa, 72 h
[9] = test system: C-33A (Cervical carcinoma); experiment: Cell viability analysis, cervical cancer C-33A; assay type: cell-based, human; settings: for viability at 10 µM: Homo sapiens, C-33-A, 72 h, read-out: The results of antibiotic drug inhibiting cancer cell lines (cell viability analysis), C-33A
[10] = test system: HCT116 (p53+) (Colorectal Carcinoma)
[11] = test system: AGS (Gastric Adenocarcinoma); experiment: Cell viability analysis, gastric cancer AGS; assay type: cell-based, human; settings: for viability at 10 µM: Homo sapiens, 72 h
[12] = test system: A549 (Lung Adenocarcinoma); experiment: Cell viability analysis, lung cancer A549; assay type: cell-based, human; settings: for viability at 10 µM: Homo sapiens, A549, 72 h
[13] = test system: Hep3B (hepatocellular carcinoma); experiment: Cell viability analysis, hepatic cancer Hep3B; assay type: cell-based, human; settings: for viability at 10 µM: Homo sapiens, Hep3B, 72 h, read-out: The results of antibiotic drug inhibiting cancer cell lines (cell viability analysis), Hep3B
[14] = test system: MDA-MB-231 (Mammary Gland, Adenocarcinoma); experiment: Cell viability analysis, breast cancer MDA-MB-231; assay type: cell-based, human; settings: for viability at 10 µM: Homo sapiens, MDA-MB-231, 72 h, read-out: The results of antibiotic drug inhibiting cancer cell lines (cell viability analysis), MDA-MB231
[15] = test system: MCF7 (Mammary Gland, Adenocarcinoma); experiment: Cell viability analysis, breast cancer MCF7; assay type: cell-based, human; settings: for viability at 10 µM: Homo sapiens, MCF7, 72 h
[16] = test system: LoVo (Colorectal Adenocarcinoma); experiment: Cell viability analysis, colon cancer LoVo; assay type: cell-based, human; settings: for viability at 10 µM: Homo sapiens, LoVo, 72 h
T24 = experiment: Cell viability analysis, bladder cancer T24; assay type: cell-based, human; settings: for viability at 10 µM: Homo sapiens, T-24, 72 h, read-out: The results of antibiotic drug inhibiting cancer cell lines (cell viability analysis), T24
cancer cell lines = experiment: Cell viability analysis (WST-1) on cancer cell lines; assay type: cell-based, human; settings: drug 10 μM, 72 hours, WST-1; Table 3
[17] = test system: MKN-45 (Gastric Adenocarcinoma); experiment: Cell viability analysis, gastric cancer MKN-45; assay type: cell-based, human; settings: for viability at 10 µM: Homo sapiens, MKN-45, 72 h
U-2OS = experiment: Cell viability analysis, osteosarcoma U-2OS; assay type: cell-based, human; settings: for viability at 10 µM: Homo sapiens, U2OS, 72 h, read-out: The results of antibiotic drug inhibiting cancer cell lines (cell viability analysis), U2OS
NIH: OVCAR-3 = experiment: Cell viability analysis, ovarian cancer NIH: OVCAR-3; assay type: cell-based, human; settings: for viability at 10 µM: Homo sapiens, OVCAR-3, 72 h, read-out: The results of antibiotic drug inhibiting cancer cell lines (cell viability analysis), NIH-OVCAR-3
[18] = test system: HepG2 (Hepatocellular Carcinoma); experiment: Cell viability analysis, hepatic cancer HepG2; assay type: cell-based, human; settings: for viability at 10 µM: Homo sapiens, HepG2, 72 h
AsPC-1 = experiment: Cell viability analysis, pancreatic cancer AsPC-1; assay type: cell-based, human; settings: for viability at 10 µM: Homo sapiens, ASPC1, 72 h, read-out: The results of antibiotic drug inhibiting cancer cell lines (cell viability analysis), AsPC-1
[19] = read-out: The results of antibiotic drug inhibiting cancer cell lines (cell viability analysis), PC-3, PC-3, repeated experiment
[20] = read-out: The results of antibiotic drug inhibiting cancer cell lines (cell viability analysis), TSGH-8301, TSGH-8301, repeated experiment
[21] = read-out: The results of antibiotic drug inhibiting cancer cell lines (cell viability analysis), H1650, H1650, repeated experiment
[22] = read-out: The results of antibiotic drug inhibiting cancer cell lines (cell viability analysis), A375, A375, repeated experiment
[23] = read-out: The results of antibiotic drug inhibiting cancer cell lines (cell viability analysis), HeLa, repeated experiment
[24] = read-out: The results of antibiotic drug inhibiting cancer cell lines (cell viability analysis), AGS, repeated experiment
[25] = read-out: The results of antibiotic drug inhibiting cancer cell lines (cell viability analysis), A549, A549, repeated experiment
[26] = read-out: The results of antibiotic drug inhibiting cancer cell lines (cell viability analysis), MCF-7, MCF-7, repeated experiment
[27] = read-out: The results of antibiotic drug inhibiting cancer cell lines (cell viability analysis), LoVo, repeated experiment
[28] = read-out: The results of antibiotic drug inhibiting cancer cell lines (cell viability analysis), MKN-45, MKN-45, repeated experiment
[29] = read-out: The results of antibiotic drug inhibiting cancer cell lines (cell viability analysis), HepG2, HepG2, repeated experiment

CC1(C)[C@@H](O[C@H]2O[C@H](C(=O)O)[C@@H](O)[C@H](O)[C@H]2O[C@@H]2O[C@H](C(=O)O)[C@@H](O)[C@H](O)[C@H]2O)CC[C@]2(C)[C@H]3C(=O)C=C4[C@@H]5C[C@@](C)(C(=O)O)CC[C@]5(C)CC[C@@]4(C)[C@]3(C)CC[C@@H]12 [Ammonium Glycyrrhizinate (AMGZ), Ammonium Glycyrrhizinate]
The results of antibiotic drug inhibiting cancer cell lines (cell viability analysis), SAS [1]: 83.22
The results of antibiotic drug inhibiting cancer cell lines (cell viability analysis), PC-3 [2]: 120.7
The results of antibiotic drug inhibiting cancer cell lines (cell viability analysis), 786-O [3]: 102.9
The results of antibiotic drug inhibiting cancer cell lines (cell viability analysis), TSGH-8301 [4]: 105.2
The results of antibiotic drug inhibiting cancer cell lines (cell viability analysis), TOV-21G (TOV-21G): 74.39
The results of antibiotic drug inhibiting cancer cell lines (cell viability analysis), H1650 [5]: 76.88
The results of antibiotic drug inhibiting cancer cell lines (cell viability analysis), BxPC-3 (BxPC-3): 102.8
The results of antibiotic drug inhibiting cancer cell lines (cell viability analysis), A375 [6]: 100.5
The results of antibiotic drug inhibiting cancer cell lines (cell viability analysis), BCC [7]: 93.09
The results of antibiotic drug inhibiting cancer cell lines (cell viability analysis), HeLa [8]: 103.4
The results of antibiotic drug inhibiting cancer cell lines (cell viability analysis), C-33A [9]: 108.4
viability [10]: 93.4%
The results of antibiotic drug inhibiting cancer cell lines (cell viability analysis), AGS [11]: 109.2
The results of antibiotic drug inhibiting cancer cell lines (cell viability analysis), A549 [12]: 83.55
The results of antibiotic drug inhibiting cancer cell lines (cell viability analysis), Hep3B [13]: 102.1
The results of antibiotic drug inhibiting cancer cell lines (cell viability analysis), MDA-MB231 [14]: 98.74
The results of antibiotic drug inhibiting cancer cell lines (cell viability analysis), MCF-7 [15]: 69.06
The results of antibiotic drug inhibiting cancer cell lines (cell viability analysis), LoVo [16]: 100.4
The results of antibiotic drug inhibiting cancer cell lines (cell viability analysis), T24 (T24): 107.9
inhibition effect on different cancer cell lines (cancer cell lines): significant inhibition effect
The results of antibiotic drug inhibiting cancer cell lines (cell viability analysis), MKN-45 [17]: 96.41
The results of antibiotic drug inhibiting cancer cell lines (cell viability analysis), U2OS (U-2OS): 78.97
The results of antibiotic drug inhibiting cancer cell lines (cell viability analysis), NIH-OVCAR-3 (NIH: OVCAR-3): 101
The results of antibiotic drug inhibiting cancer cell lines (cell viability analysis), HepG2 [18]: 119.7
The results of antibiotic drug inhibiting cancer cell lines (cell viability analysis), AsPC-1 (AsPC-1): 100.6

O=c1n(CCCN2CCN(c3cccc(Cl)c3)CC2)nc2ccccn12 [Trazodone hydrochloride (Desyrel), Trazodone hydrochloride]
viability at 10 µM [1]: 58.4%
viability at 10 µM [2, 19]: 126%
viability at 10 µM [3]: 95.5%
viability at 10 µM [4, 20]: 134%
viability at 10 µM (TOV-21G): 107%
viability at 10 µM [5, 21]: 82.4%
viability at 10 µM (BxPC-3): 73.5%
viability at 10 µM [6, 22]: 111%
viability at 10 µM [7]: 114%
viability at 10 µM [8, 23]: 105%
viability at 10 µM [9]: 112%
viability [10]: 113%
viability at 10 µM [11, 24]: 120%
viability at 10 µM [12, 25]: 92%
viability at 10 µM [13]: 110%
viability at 10 µM [14]: 87.8%
viability at 10 µM [15, 26]: 97.8%
viability at 10 µM [16, 27]: 88.8%
viability at 10 µM (T24): 106%
inhibition effect on different cancer cell lines (cancer cell lines): significant inhibition effect
viability at 10 µM [17, 28]: 108%
viability at 10 µM (U-2OS): 57.6%
viability at 10 µM (NIH: OVCAR-3): 103%
viability at 10 µM [18, 29]: 109%
viability at 10 µM (AsPC-1): 89.4%

CC[C@H]1OC(=O)[C@H](C)[C@@H](O[C@H]2C[C@@](C)(OC)[C@@H](O)[C@H](C)O2)[C@H](C)[C@@H](O[C@@H]2O[C@H](C)C[C@H](N(C)C)[C@H]2O)[C@](C)(O)C[C@@H](C)CN(C)[C@H](C)[C@@H](O)[C@]1(C)O [Azithromycin Dihydrate]
viability at 10 µM [1]: 50%
viability at 10 µM [2, 19]: 97.2%
viability at 10 µM ([2]; read-out: cell viability (survival rate), PC3, drug 10 μM, 72 hours, WST-1, OD450 nm): 43%
viability at 10 µM [3]: 91%
viability at 10 µM [4, 20]: 119%
viability at 10 µM ([4]; read-out: cell viability (survival rate), TSGH, drug 10 μM, 72 hours, WST-1, OD450 nm): 39.4%
viability at 10 µM (TOV-21G): 89.6%
viability at 10 µM [5, 21]: 98.6%
viability at 10 µM ([5]; read-out: cell viability (survival rate), H1650, drug 10 μM, 72 hours, WST-1, OD450 nm): 61.3%
viability at 10 µM (BxPC-3): 71.3%
viability at 10 µM [6, 22]: 97.4%
viability at 10 µM ([6]; read-out: cell viability (survival rate), A375, drug 10 μM, 72 hours, WST-1, OD450 nm): 50.8%
viability at 10 µM [7]: 70.6%
viability at 10 µM [8, 23]: 105%
viability at 10 µM ([8]; read-out: cell viability (survival rate), HeLa, drug 10 μM, 72 hours, WST-1, OD450 nm): 55.6%
viability at 10 µM [9]: 92.6%
viability [10]: 80.7%
viability at 10 µM [11, 24]: 77.2%
viability at 10 µM ([11]; read-out: cell viability (survival rate), AGS, drug 10 μM, 72 hours, WST-1, OD450 nm): 72.7%
viability at 10 µM [12, 25]: 66.3%
viability at 10 µM ([12]; read-out: cell viability (survival rate), A549, drug 10 μM, 72 hours, WST-1, OD450 nm): 41.4%
viability at 10 µM [13]: 109%
viability at 10 µM [14]: 97.8%
viability at 10 µM [15, 26]: 62.3%
viability at 10 µM ([15]; read-out: cell viability (survival rate), MCF7, drug 10 μM, 72 hours, WST-1, OD450 nm): 36.4%
viability at 10 µM [16, 27]: 79.2%
viability at 10 µM ([16]; read-out: cell viability (survival rate), LoVo, drug 10 μM, 72 hours, WST-1, OD450 nm): 65.3%
viability at 10 µM (T24): 112%
inhibition effect on different cancer cell lines (cancer cell lines): significant inhibition effect
viability at 10 µM [17, 28]: 95.8%
viability at 10 µM ([17]; read-out: cell viability (survival rate), MKN-45, drug 10 μM, 72 hours, WST-1, OD450 nm): 51.2%
viability at 10 µM (U-2OS): 70.3%
viability at 10 µM (NIH: OVCAR-3): 94%
viability at 10 µM [18, 29]: 91.4%
viability at 10 µM ([18]; read-out: cell viability (survival rate), HepG2, drug 10 μM, 72 hours, WST-1, OD450 nm): 81.1%
viability at 10 µM (AsPC-1): 75.3%
